Experimental data reported in publication PMC9024523, “Phenoxyaromatic Acid Analogues as Novel Radiotherapy Sensitizers: Design, Synthesis and Biological Evaluation” (Molecules, 2022).
“And” between values parts separate entries of the source, which are not always exact repeats. Equal values may be shown once.

Test system: mouse red blood cells
Assay: In vitro red blood cell-based assay (oxygen equilibrium curve, Softron analyzer)
Settings: final effector concentration 2 mM, mean ± SD; for P50/P50C: P50C = control with 1% DMSO; for P50: 1% DMSO; for P50 / ∆P50: mouse red blood cells; for ∆P50: ∆P50 = P50 − P50C
Source text: In the first stage of our research, three series of analogues were designed and synthesized to explore refinement of the hydrophobic parts of 19f, 19m, 24a and 24b; hinge areas of 18g, 19b and 19y; and tail regions of 15c, 15d and 16c, respectively. We used the Softron Analyzer to evaluate the effect of these compounds on the half-blood oxygen saturation(P50) value of red blood cells. The most promising phenoxyaromatic acid compound, efaproxiral, was used as a positive control. […] The results reminded us that the modification of the hydrophobic part or linker extension is beneficial to improve an allosteric effect.
Eight-week-old female C57BL6J mice were purchased from Beijing Vital River Laboratory Animal Technology Co., Ltd. A total of 540 μL mouse blood was added into the 1.5 mL centrifuge tube, followed by adding 60 μL 3.8% sodium citrate. The mixture was then centrifuged at 1500 rpm for 10 min, the supernatant was carefully aspirated, and the cells were washed three times with PBS solution. After mixing packed red blood cells with Alsever’s solution in a ratio of 1:1, a blood gas analyzer (RADIOMETER ABL 90) was used to analyze the red blood cell density and hemoglobin concentration.
All of the compounds were prepared as 200 mM stock solutions in DMSO. Oxygen equilibrium measurements were performed with the Softron analyzer (Softron Medical Products, Beijing, China) using mouse red blood cells. The samples were prepared by adding 3 mg hemoglobin equivalent of red blood cells into 3.92 mL loading buffer (100 mM NaCl, 50 mM bis-Tris at pH 7.2 and 25 °C), followed by 20 μL 10% Dimethicone as a defoamer and 20 μL 20% BSA. Afterwards, 40 μL stock solution was added, and the mixture was loaded to the sample cell and fully deoxygenated by blowing into nitrogen at 37 °C for 15 min. Then, the oxygen equilibrium curve was recorded by blowing into oxygen.

Row | Compound | P50/P50C | P50 | K (Hill coefficient of the oxygen dissociation curve at 50% saturation) | ∆P50
1 | 2-(4-(1-((3,5-dimethylphenyl)carbamoyl)cyclopropyl)phenoxy)-2-methylpropanoic acid [19e] | 1.10 ± 0.04 | 46.24 ± 7.09 mmHg | 2.40 ± 0.12 | 4.41 ± 2.27 mmHg
2 | 2-(4-(2-((3-bromo-5-chlorophenyl)amino)ethyl)phenoxy)-2-methylpropanoic acid [18b] | 1.10 ± 0.03 | 42.61 ± 2.15 mmHg | 2.19 ± 0.01 | 3.66 ± 0.88 mmHg
3 | 2-(4-(2-([1,1′-biphenyl]-4-ylamino)ethyl)phenoxy)-2-methylpropanoic acid [18e] | 1.15 ± 0.37 | 51.84 ± 16.79 mmHg | 2.28 ± 0.28 | 6.60 ± 16.79 mmHg
4 | 2-methyl-2-(4-(2-(naphthalen-2-ylamino)ethyl)phenoxy)propanoic acid [18f] | 1.72 ± 0.03 | 79.24 ± 1.61 mmHg | 1.89 ± 0.13 | 33.13 ± 1.61 mmHg
5 | 2-methyl-2-(4-(2-oxo-2-(o-tolylamino)ethyl)phenoxy)propanoic acid [19f] | 1.17 ± 0.04 | 53.78 ± 1.94 mmHg | 2.26 ± 0.11 | 7.72 ± 1.87 mmHg
6 | 7-(2-((3,5-dimethylphenyl)amino)-2-oxoethyl)-2,3-dihydrobenzo[b][1,4]dioxine-2-carboxylic acid [compound 20] | 1.12 ± 0.06 | 47.11 ± 8.08 mmHg | 2.39 ± 0.16 | 5.27 ± 3.27 mmHg
7 | CCOC(=O)CCCOc1ccc(CC(=O)Nc2cc(C)cc(C)c2)cc1 [15a, Ethyl 4-(4-(2-((3,5-dimethylphenyl)amino)-2-oxoethyl)phenoxy)butanoate] | 0.96 ± 0.25 | 43.55 ± 11.21 mmHg |  | −1.70 ± 11.21 mmHg
8 | COC(=O)C(Oc1ccc(CC(=O)Nc2cc(C)cc(C)c2)cc1)c1ccccc1 (stereo not drawn) [15b, Methyl2-(4-(2-((3,5-dimethylphenyl)amino)-2-oxoethyl)phenoxy)-2-phenylacetate] | 1.28 ± 0.19 | 57.82 ± 8.69 mmHg |  | 12.58 ± 8.69 mmHg
9 | COC(=O)C(C)(C)Oc1ccc(CC(=O)Nc2cc(C)cc(C)c2)cc1 [15c, Methyl2-(4-(2-((3,5-dimethylphenyl)amino)-2-oxoethyl)phenoxy)-2methylpropanoate] | 0.96 ± 0.26 | 43.28 ± 11.71 mmHg |  | −1.96 ± 11.71 mmHg
10 | Cc1cc(C)cc(NC(=O)Cc2ccc(OCCCC(=O)O)cc2)c1 [16a, 4-(4-(2-((3,5-dimethylphenyl)amino)-2-oxoethyl)phenoxy)butanoic acid] | 1.18 ± 0.04 | 53.49 ± 1.85 mmHg |  | 8.25 ± 1.85 mmHg
11 | Cc1cc(C)cc(NCCCc2ccc(OC(C)(C)C(=O)O)cc2)c1 [18a, 2-(4-(3-((3,5-dimethylphenyl)amino)propyl)phenoxy)-2-methylpropanoic acid] | 1.41 ± 0.03 | 77.19 ± 5.93 mmHg |  | 22.54 ± 2.74 mmHg
12 | CSc1cccc(NCCc2ccc(OC(C)(C)C(=O)O)cc2)c1 [18c, 2-methyl-2-(4-(2-((3-(methylthio)phenyl)amino)ethyl)phenoxy)propanoic acid] | 1.28 ± 0.07 | 48.61 ± 4.43 mmHg |  | 10.7 ± 2.95 mmHg
13 | C#Cc1cccc(NCCc2ccc(OC(C)(C)C(=O)O)cc2)c1 [18d, 2-(4-(2-((3-ethynylphenyl)amino)ethyl)phenoxy)-2-methylpropanoic acid] | 1.15 ± 0.05 | 52.25 ± 2.32 mmHg |  | 7.01 ± 2.32 mmHg
14 | Cc1cc(C)cc(NCCc2ccc(OC(C)(C)C(=O)O)cc2)c1 [18g, 2-(4-(2-((3,5-dimethylphenyl)amino)ethyl)phenoxy)-2-methylpropanoic acid] | 1.86 ± 0.05 | 77.54 ± 6.96 mmHg |  | 35.71 mmHg and 35.71 ± 2.14 mmHg
15 | Cc1cc(C)cc(NC(=O)c2ccc(OC(C)(C)C(=O)O)cc2)c1 [19b, 2-(4-((3,5-dimethylphenyl)carbamoyl)phenoxy)-2-methylpropanoic acid] | 1.04 ± 0.05 | 43.01 ± 2.18 mmHg |  | 1.82 ± 2.18 mmHg
16 | Cc1cc(C)cc(NC(=O)CCCc2ccc(OC(C)(C)C(=O)O)cc2)c1 [19d, 2-(4-(4-((3,5-dimethylphenyl)amino)-4-oxobutyl)phenoxy)-2-methylpropanoic acid] | 1.60 ± 0.02 | 67.93 ± 8.80 mmHg |  | 25.43 ± 3.71 mmHg
17 | CC(C)(Oc1ccc(CC(=O)Nc2cc(Br)cc(Br)c2)cc1)C(=O)O [19h, 2-(4-(2-((3,5-dibromophenyl)amino)-2-oxoethyl)phenoxy)-2-methylpropanoic acid] | 1.87 ± 0.03 | 68.71 ± 1.18 mmHg |  | 31.90 ± 1.18 mmHg
18 | CC(C)(Oc1ccc(CC(=O)Nc2cccc(I)c2)cc1)C(=O)O [19i, 2-(4-(2-((3-iodophenyl)amino)-2-oxoethyl)phenoxy)-2-methylpropanoic acid] | 1.91 ± 0.13 | 86.61 ± 6.04 mmHg |  | 41.37 mmHg and 41.37 ± 6.04 mmHg
19 | CC(C)(Oc1ccc(CC(=O)Nc2cc(Cl)cc(Br)c2)cc1)C(=O)O [19j, 2-(4-(2-((3-. bromo-5-chlorophenyl)amino)-2-oxoethyl)phenoxy)-2-methylpropanoic acid] | 1.82 ± 0.02 | 82.35 ± 0.80 mmHg |  | 37.11 ± 0.80 mmHg
20 | CC(C)(Oc1ccc(CC(=O)Nc2ccccc2Br)cc1)C(=O)O [19k, 2-(4-(2-((2-bromophenyl)amino)-2-oxoethyl)phenoxy)-2-methylpropanoic acid] | 1.34 ± 0.29 | 49.17 ± 10.7 mmHg |  | 12.36 ± 10.79 mmHg
21 | Cc1cccc(NC(=O)Cc2ccc(OC(C)(C)C(=O)O)cc2)c1Br [19l, 2-(4-(2-((2-bromo-3-methylphenyl)amino)-2-oxoethyl)phenoxy)-2-methylpropanoic acid] | 1.56 ± 0.04 | 70.41 ± 1.68 mmHg |  | 25.17 ± 1.68 mmHg
22 | CSc1ccc(NC(=O)Cc2ccc(OC(C)(C)C(=O)O)cc2)cc1 [19m, 2-methyl-2-(4-(2-((4-(methylthio)phenyl)amino)-2-oxoethyl)phenoxy)propanoic acid] | 1.80 ± 0.02 | 74.24 ± 0.69 mmHg |  | 33.05 mmHg and 33.05 ± 0.69 mmHg
23 | CSc1cccc(NC(=O)Cc2ccc(OC(C)(C)C(=O)O)cc2)c1 [19m-1, 2-methyl-2-(4-(2-((3-(methylthio)phenyl)amino)-2-oxoethyl)phenoxy)propanoic acid] | 1.81 ± 0.02 | 81.67 ± 0.95 mmHg |  | 36.43 mmHg and 36.43 ± 0.95 mmHg
24 | C#Cc1ccc(NC(=O)Cc2ccc(OC(C)(C)C(=O)O)cc2)cc1 [19n, 2-(4-(2-((4-ethynylphenyl)amino)-2-oxoethyl)phenoxy)-2-methylpropanoic acid] | 1.46 ± 0.02 | 60.34 ± 0.70 mmHg |  | 19.15 mmHg and 19.15 ± 0.70 mmHg
